How the values were obtained:
Type in all cases: cell-based
CDK2 = target: T1, CDK2 (Homo sapiens, UniProt P24941); test: HiBit Assay Protocol for CDK2 (HIBIT protein quantification, degradation); settings: HEK293-CDK2-Hibit cells, compound treatment for 6 hours; for DC50: ABS DC50
T1 construct: host or cells: HEK293-CDK2-Hibit
In short: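 DC50 comes from a fitted curve of remaining CDK2-HiBiT luminescence, referenced to DMSO-treated cells and medium-only wells. HEK293-CDK2-HiBiT cells, plated the previous night, received compounds in a 10-point, 3-fold series for 6 h before lysis with LgBiT-containing Nano-Glo HiBiT reagent.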

CDK9 = target: T2, CDK9 (Homo sapiens, UniProt P50750); test: HiBit Assay Protocol for CDK9 (HIBIT protein quantification, degradation); settings: HEK293-CDK9-Hibit cells, compound treatment for 6 hours; for Dmax: 6 h, read-out: CDK9 HIBIT Protein Quantification Maximum
T2 construct: host or cells: HEK293-CDK9-Hibit
In short: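 Degradation read-out: luminescence after lytic HiBiT/LgBiT detection in HEK293-CDK9-HiBiT cells exposed 6 h to 10-point, 3-fold compound dilutions. Signal scaled between 0.1% DMSO-treated cells and medium alone; DC50 fitted from the curve.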

CCNE1 = target: T3, CCNE1 (Homo sapiens, UniProt P24864); test: HiBit Assay Protocol for CCNE1 (HIBIT protein quantification, degradation); settings: HEK293-CCNE1-Hibit cells, compound treatment for 6 hours
T3 construct: host or cells: HEK293-CCNE1-Hibit
In short: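 Degradation readout: lytic Nano-Glo HiBiT luminescence after 6 h exposure of HEK293-CCNE1-HiBiT cells to 10-point, 3-fold serial dilutions. Signal was scaled between medium-only and DMSO-treated wells, and DC50 came from curve fits.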

T2 sequence (P50750 whole entry): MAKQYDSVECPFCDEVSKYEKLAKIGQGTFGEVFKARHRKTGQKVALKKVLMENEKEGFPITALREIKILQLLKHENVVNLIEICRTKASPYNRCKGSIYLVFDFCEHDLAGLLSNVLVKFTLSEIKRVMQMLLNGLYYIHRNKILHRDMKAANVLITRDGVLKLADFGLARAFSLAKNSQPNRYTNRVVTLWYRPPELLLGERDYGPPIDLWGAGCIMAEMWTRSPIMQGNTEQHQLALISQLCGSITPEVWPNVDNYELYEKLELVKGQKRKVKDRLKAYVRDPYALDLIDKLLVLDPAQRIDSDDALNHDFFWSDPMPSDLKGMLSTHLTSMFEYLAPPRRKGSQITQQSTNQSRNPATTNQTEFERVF
T3 sequence (P24864 whole entry): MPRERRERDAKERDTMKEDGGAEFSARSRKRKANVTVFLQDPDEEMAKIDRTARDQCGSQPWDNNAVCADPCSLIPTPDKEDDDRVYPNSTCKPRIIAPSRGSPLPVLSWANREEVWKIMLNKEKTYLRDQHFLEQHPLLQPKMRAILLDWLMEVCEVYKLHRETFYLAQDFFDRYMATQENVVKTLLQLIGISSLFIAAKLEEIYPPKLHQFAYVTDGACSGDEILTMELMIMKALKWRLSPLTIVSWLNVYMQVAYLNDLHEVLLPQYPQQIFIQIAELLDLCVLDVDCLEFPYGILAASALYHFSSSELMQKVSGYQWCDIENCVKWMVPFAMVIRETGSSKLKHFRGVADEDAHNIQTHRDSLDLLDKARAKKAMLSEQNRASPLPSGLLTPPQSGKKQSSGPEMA

| CDK2 HIBIT Protein Quantification Maximum (CDK2) | DC50 (CDK2) | Dmax (CDK9) | CCNE1 HIBIT Protein Quantification Maximum (CCNE1) | DC50 (CDK9; ABS DC50) | Compound |
| --- | --- | --- | --- | --- | --- |
| 67% | 2.84 nM | 24% | 43% |  | Cn1nc(N2CCC(=O)NC2=O)c2ccc(C3CCN(Cc4cccc(S(=O)(=O)N5CCC(Nc6ncc7c(n6)N([C@@H]6CCC[C@@H](O)C6)C(=O)C76CC6)CC5)c4)C(C)(C)C3)cc21 (stereo partly drawn) [Compound 183, 1-[6-(1-{[3-(4-{7′-[(1R,3R)-3-Hydroxycyclohexyl]-6′-oxospiro[cyclopropane-1,5′-pyrrolo[2,3-d]pyrimidin]-2′-ylamino}piperidin-1-ylsulfonyl)phenyl]methyl}-2,2-dimethylpiperidin-4-yl)-1-methylindazol-3-yl]-1,3-diazinane-2,4-dione] |
| 46% |  | 26% | 46% |  | CC1CCCC1N1C(=O)C2(CC2)c2cnc(NC3CCN(S(=O)(=O)N4CC5(CCCN(C(=O)CCCCc6cccc7c6n(C)c(=O)n7C6CCC(=O)NC6=O)C5)C4)CC3)nc21 (centres unmarked) [Compound 96] |
| 42% |  | 4% | 9% |  | CC1CCCC1N1C(=O)C2(CC2)c2cnc(NC3CCN(S(=O)(=O)N4CCCN(C(=O)CCCc5cccc6c5n(C)c(=O)n6C5CCC(=O)NC5=O)CC4)CC3)nc21 (centres unmarked) [Compound 33] |
| 19% |  | 25% | 26% |  | CC1CCCC1N1C(=O)C2(CC2)c2cnc(NC3CCN(S(=O)(=O)N4CC5(CN(C(=O)CCc6cccc7c6n(C)c(=O)n7C6CCC(=O)NC6=O)C5)C4)CC3)nc21 (centres unmarked) [Compound 19] |
| 60% | 3 nM | 23% | 29% |  | CC1CCCC1N1C(=O)C2(CC2)c2cnc(NC3CCN(S(=O)(=O)N4CC(N(C)C(=O)CCCc5ccc6c(c5)n(C)c(=O)n6C5CCC(=O)NC5=O)C4)CC3)nc21 (centres unmarked) [Compound 61] |
| 85% | 10.2 nM | 18% | 34% |  | CC(C)[C@H]1CN([C@H](C)c2cccc(S(=O)(=O)N3CC[C@H](Nc4ncc5c(n4)N([C@@H]4CCC[C@@H](O)C4)C(=O)C54CC4)[C@H](F)C3)c2)CCN1c1ccc2c(N3CCC(=O)NC3=O)nn(C)c2c1 (stereo in doubt) [Compound 203] |
| 61% | 9.23 nM | 14% | 26% |  | O=C1CCC(N2Cc3cc(N4CCN(C5CN(c6cccc(S(=O)(=O)N7CCC(Nc8ncc9c(n8)N([C@H]8CCC[C@H](O)C8)C(=O)C98CC8)CC7)c6)C5)CC4)ccc3C2=O)C(=O)N1 (stereo in doubt) [Compound 133, 3-[5-(4-{1-[3-(4-{7′-[(1S,3S)-3-Hydroxycyclohexyl]-6′-oxospiro[cyclopropane-1,5′-pyrrolo[2,3-d]pyrimidin]-2′-ylamino}piperidin-1-ylsulfonyl)phenyl]azetidin-3-yl}piperazin-1-yl)-1-oxo-3H-isoindol-2-yl]piperidine-2,6-dione] |
| 29% |  | 23% | 17% |  | CC1CCCC1N1C(=O)C2(CC2)c2cnc(NC3CCN(S(=O)(=O)N4CC5C4CCN5C(=O)CCCCCc4ccc5c(c4)n(C)c(=O)n5C4CCC(=O)NC4=O)CC3)nc21 (centres unmarked) [Compound 78] |
| 75% | 1.97 nM | 49% | 39% |  | CC1CCCC1N1C(=O)C2(CC2)c2cnc(NC3CCN(S(=O)(=O)N4CC5(CN(CC6CCN(c7ccc8c(c7)n(C)c(=O)n8C7CCC(=O)NC7=O)CC6)C5)C4)CC3)nc21 (centres unmarked) [Compound 144] |
| 59% | 86 nM | 41% | 22% |  | CC1CCCC1N1C(=O)C2(CC2)c2cnc(NC3CCN(S(=O)(=O)N4CCC5(CCN(C(=O)CCCc6cccc7c6n(C)c(=O)n7C6CCC(=O)NC6=O)C5)C4)CC3)nc21 (centres unmarked) [Compound 32] |
| 42% |  | 9% | 8% |  | CC1CCCC1N1C(=O)C2(CC2)c2cnc(NC3CCN(S(=O)(=O)N4CC5(CCCCN5C(=O)CCCc5cccc6c5n(C)c(=O)n6C5CCC(=O)NC5=O)C4)CC3)nc21 (centres unmarked) [Compound 26] |
| 34% |  | 17% | 21% |  | CC1CCCC1N1C(=O)C2(CC2)c2cnc(NC3CCN(S(=O)(=O)N4CCCC45CCN(C(=O)CCCCCc4cccc6c4n(C)c(=O)n6C4CCC(=O)NC4=O)C5)CC3)nc21 (centres unmarked) [Compound 35] |
| 76% | 35 nM | 57% | 47% | 95.8 nM | CC1CCCC1N1C(=O)C2(CC2)c2cnc(NC3CCN(S(=O)(=O)N4CC5(CN(C(=O)CCCc6cccc7c6n(C)c(=O)n7C6CCC(=O)NC6=O)C5)C4)CC3)nc21 (centres unmarked) [Compound 29] |
| 32% |  | 34% | 32% |  | Cn1c(=O)n(C2CCC(=O)NC2=O)c2cccc(C3CCN(CC4CCN(S(=O)(=O)c5ccc(Nc6ncc7c(n6)N([C@@H]6CCC[C@@H](O)C6)C(=O)C76CC6)cc5)CC4)CC3)c21 (some centres unmarked) [Compound 128] |
| 81% | 1.66 nM | 9% | 44% |  | Cn1nc(N2CCC(=O)NC2=O)c2ccc(C3CCN(Cc4cccc(S(=O)(=O)N5CC[C@H](Nc6ncc7c(n6)N([C@@H]6CCC[C@@H](O)C6)C(=O)C76CC6)[C@H](F)C5)c4)CC3)cc21 [Compound 156] |
| 26% |  | 11% | 43% |  | CC1CCCC1N1C(=O)C2(CC2)c2cnc(NC3CCN(S(=O)(=O)C4CCCN(C(=O)CCCCCc5ccc6c(c5)n(C)c(=O)n6C5CCC(=O)NC5=O)C4)CC3)nc21 (centres unmarked) [Compound 82] |
| 84% | 5.85 nM | 10% | 47% |  | Cn1nc(N2CCC(=O)NC2=O)c2ccc(C3CCN(Cc4cc(S(=O)(=O)N5CCC(Nc6ncc7c(n6)N([C@@H]6CCC[C@@H](O)C6)C(=O)C76CC6)CC5)ccc4F)CC3)cc21 [Compound 169, 1-[6-(1-{[2-Fluoro-5-(4-{7′-[(1R,3R)-3-hydroxycyclohexyl]-6′-oxospiro[cyclopropane-1,5′-pyrrolo[2,3-d]pyrimidin]-2′-ylamino}piperidin-1-ylsulfonyl)phenyl]methyl}piperidin-4-yl)-1-methylindazol-3-yl]-1,3-diazinane-2,4-dione] |
| 92% | 4.67 nM | 16% | 45% |  | C[C@@H]1CN(c2ccc3c(N4CCC(=O)NC4=O)nn(C)c3c2)CCN1[C@@H](C)c1cccc(S(=O)(=O)N2CC[C@H](Nc3ncc4c(n3)N([C@@H]3CCC[C@@H](O)C3)C(=O)C43CC3)[C@H](F)C2)c1 [Compound 192, 1-(6-((R)-4-((S)-1-(3-(((3R,4S)-3-Fluoro-4-((7′-((1R,3R)-3-hydroxycyclohexyl)-6′-oxo-6′,7′-dihydrospiro[cyclopropane-1,5′-pyrrolo[2,3-d]pyrimidin]-2′-yl)amino)piperidin-1-yl)sulfonyl)phenyl)ethyl)-3-methylpiperazin-1-yl)-1-methyl-1H-indazol-3-yl)dihydropyrimidine-2,4(1H,3H)-dione] |
